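All cell lines were grown in 96-well plates and treated with compound for 48 hours. Definition used: TGI = concentration required for complete inhibition of growth.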
Tests used:
Assay in all cases: NCI-60 cell line screen, 48 h
K-562 leukemia = system: K-562 leukemia
SN12C renal = system: SN12C renal
SR leukemia = system: SR leukemia
NCI-H226 lung = system: NCI-H226 lung
MDA-MB-435 = system: MDA-MB-435
MCF7 breast = system: MCF7 breast
SNB-19 CNS = system: SNB-19 CNS
IGROV1 ovarian = system: IGROV1 ovarian
OVCAR-3 ovarian = system: OVCAR-3 ovarian
UO-31 renal = system: UO-31 renal
HCT-116 colon = system: HCT-116 colon
NCI/ADR-RES ovarian = system: NCI/ADR-RES ovarian
A549 NSCLC = system: A549 NSCLC

Row | Structure (SMILES) | TGI (K-562 leukemia) [µM] | TGI (SN12C renal) [µM] | TGI (SR leukemia) [µM] | TGI (NCI-H226 lung) [µM] | TGI (MDA-MB-435) [µM] | TGI (MCF7 breast) [µM] | TGI (SNB-19 CNS) [µM] | TGI (IGROV1 ovarian) [µM] | TGI (OVCAR-3 ovarian) [µM] | TGI (UO-31 renal) [µM] | TGI (HCT-116 colon) [µM] | TGI (NCI/ADR-RES ovarian) [µM] | TGI (A549 NSCLC) [µM]
1 | C=C(C)C1CC/C(C)=C/CC[C@]2(C)O[C@H]2CC/C(COC(C)=O)=C\[C@@H]1O (stereo partly drawn) | > 50 | > 50 | > 50 | > 50 | > 50 | > 50 | > 50 | > 50 | > 50 | > 50 | > 50 | > 50 | > 50
2 | COc1cc(C(=O)O[C@@H]2[C@@H](OC(=O)c3cc(OC)c(OC)c(OC)c3)[C@@H](OC)O[C@@H]3CO[C@@H](c4ccccc4)O[C@@H]23)cc(OC)c1OC | > 100 | > 100 | > 100 | > 100 | > 100 | > 100 | > 100 | > 100 | > 100 | > 100 | > 100 | > 100 | > 100
3 | CN(C)Cc1cc(C(C)(C)C)ccc1-c1ccc(C(C)(C)C)cc1CN(C)C | > 100 | > 100 | > 100 | > 100 | > 100 | > 100 | > 100 | > 100 | > 100 | > 100 | > 100 | > 100 | > 100
4 | O=C(C[n+]1ccccc1)N/N=C(\Cc1nc2ccc([N+](=O)[O-])cc2[nH]c1=O)C(=O)Nc1cc(Cl)c(Cl)cc1Cl | > 100 | > 100 | > 100 | > 100 | > 100 | > 100 | > 100 | > 100 | > 100 | > 100 | > 100 | > 100 | > 100
5 | COc1cc(C2SC(N)=Nc3c2c(C)nn3C(=O)c2ccccc2O)ccc1O (stereo not drawn) | > 3.75 | > 10 | > 2.73 | > 6.18 | > 10 | > 10 | > 10 | > 3.33 | > 10 | > 10 | > 10 | > 10 | > 10
6 | CCOP(=O)(C/C=C/Cn1nc(Br)c(=O)[nH]c1=O)OCC | > 100 | > 100 | > 100 | > 100 | > 100 | > 100 | > 100 | > 100 | > 100 | > 100 | > 100 | > 100 | > 100

Reference: PubChem BioAssay (NCI)
